Assay results taken from paper PMC5613053 (Investigational New Drugs, 2017).
Where two headings read alike, the source gives them in different places.

Columns and labels:
[1] = Body weight in MV4–11 xenograft study; type: in vivo, mice; conditions: 1–10 mg/kg/day oral, 28 days; any tested dose
Protocol: (§1) Once tumor growth had been confirmed, mice xenografted with MV4–11 cells were monitored for 28 days; mice xenografted with Ba/F3 cells expressing FLT3 mutations were monitored for 7 days. Tumor diameter was measured using a caliper, and tumor volume was determined by calculating the volume of an ellipsoid using the formula: length × width^2 × 0.5. Body weight was measured using a standard balance. Data are expressed as mean ± SEM from n = 6 mice/group (MV4–11) and n = 5 mice/group (Ba/F3).
(§2) After tumor establishment, mice were divided into groups such that the mean tumor volume was approximately equal in each group.

[2] = system: Ba/F3 cells expressing FLT3-ITD-D835Y; test: cells; conditions: Mus musculus, BaF3, 48 h, read-out: Cell growth inhibition IC50
Protocol: (§3) A detailed protocol is provided in the online resource.
(§4) To examine the effect of ASP2215 on cell viability, MV4-11, MOLM-13, and Ba/F3 cells expressing either FLT3-ITD, FLT3-D835Y, FLT3-ITD-D835Y, FLT3-ITD-F691L or FLT3-ITD-F691I were seeded into 96-well white plates (Nunc F96 MicroWell™ Plates, white; Thermo Fisher Scientific Inc., Waltham, MA) at 1000 cells/well in Iscove’s Modified Dulbecco’s Medium, 500 cells/well in RPMI 1640 or 1000 cells/well in RPMI 1640, respectively. All cell lines were cultured overnight in a humidified incubator at 37°C with 5% CO2 in media supplemented with 10% heat-inactivated FBS.
(§5) After treatment, the CellTiter-Glo® Luminescent Cell Viability Assay (Promega) was used according to the manufacturer’s instructions and luminescence was measured using an ARVO-HTS plate reader (Perkin Elmer Inc., Waltham, MA). The assay was performed in either triplicate or quadruplicate. […] The geometric mean was calculated from three individual experiments.
(§6) The mutants of FLT3 (NM_004119), FLT3-D835Y (gat to tat), FLT3-ITD (insertion of […] at 1799 position of CDS), FLT3-ITD-F691I (ttt to att), FLT3-ITD-F691L (ttt to ctt), FLT3-ITD-D835Y were encoded into pMX-puro vector (Cell Biolabs, Inc., San Diego, CA), and transfected with FuGENE-HD (Promega) into Platinum-E cells. […]

[3] = system: Ba/F3 cells expressing FLT3-ITD; test: cells; conditions: Mus musculus, BaF3, 48 h, read-out: Cell growth inhibition IC50
Protocol: as §3, §4, §5, §6

[4] = system: parental Ba/F3 cells in the presence of IL-3; test: CellTiter-Glo cell viability, off-target; type: cell-based; conditions: Mus musculus, BaF3, 48 h; IL-3 present; 2 days of treatment; off-target inhibition; read-out: Cell growth inhibition IC50
Protocol: as §3
The assay was performed in either triplicate or quadruplicate. […] The geometric mean was calculated from three individual experiments.

[5] = system: p-ERK; test: Immunoblot of downstream FLT3 targets in MV4-11 cells; type: cell-based; conditions: Homo sapiens
Protocol: (§7) FLT3 immunoprecipitation and immunoblotting for all targets were performed following standard protocols. Detailed methods are provided in the online resource.
(§8) Cells were treated for 2 h prior to cell lysate preparation in RIPA buffer supplemented with phosphatase / protease inhibitors. Following sample preparation, protein lysates were electrophoresed on 7.5% gels and transferred to PVDF membranes.
(§9) All membranes were blocked using either Blocking One or Blocking One-P (Nacalai Tesque Inc., Kyoto, Japan) for 1 h prior to an overnight incubation with primary antibody. Membranes were incubated overnight at 4°C with one of the following antibodies: anti-FLT3 antibody (Abcam), anti-phosphorylated pan-tyrosine, anti-ERK, anti-phospho-ERK, anti-STAT5, anti-phospho-STAT5, anti-AKT, anti-phospho-AKT, anti-AXL, anti-phospho-AXL, or anti-actin. The membranes were then washed with 1× TBS Tween-20 (TBS-T) Buffer (Thermo Fisher Scientific Inc., Rockford, IL) and incubated with an appropriate HRP-linked secondary antibody (Cell Signaling Technology) for 1 h at room temperature. After a final wash, ECL Western Blotting Detection Reagent ECL-prime (GE Healthcare, Fairfield, CT) were applied to the membranes and signals were detected with a CCD camera (ImageQuant LAS4000; GE Healthcare). Signal intensity was then quantified using ImageQuant™ TL software (GE Healthcare). The study was performed once in triplicate, and the mean percentage of phosphorylated protein to total protein relative to that in vehicle-treated cells was calculated.

[6] = system: p-AKT; test: as above; type: cell-based; conditions: Homo sapiens
Protocol: as §7, §8, §9

[7] = system: p-STAT5; test: as above; type: cell-based; conditions: Homo sapiens
Protocol: as §7, §8, §9

[8] = system: MV4–11 tumors; test: MV4–11 subcutaneous xenograft antitumor activity; type: in vivo, mice; conditions: 28 days; for Mice with complete tumor regression: n = 6
Protocol: as §1, §2

[9] = Pharmacokinetics in MV4–11 xenografted nude mice (plasma and tumor); type: in vivo; conditions: for AUC(0-t) / Cmax / Tmax: nude, mouse; for AUC(0-t): read-out: AUCt, plasma concentration; for Tmax: read-out: Time of maximal plasma concentration
Protocol: Tumor samples were also collected from each mouse and tumor weight was measured.

[10] = biological target: T1, c-KIT (Homo sapiens, UniProt P10721); test: Kinase inhibitory assay (TK-ELISA / off-chip MSA); type: biochemical
T1 construct: purchased Carna Biosciences, Inc
T1 sequence (P10721 26-976): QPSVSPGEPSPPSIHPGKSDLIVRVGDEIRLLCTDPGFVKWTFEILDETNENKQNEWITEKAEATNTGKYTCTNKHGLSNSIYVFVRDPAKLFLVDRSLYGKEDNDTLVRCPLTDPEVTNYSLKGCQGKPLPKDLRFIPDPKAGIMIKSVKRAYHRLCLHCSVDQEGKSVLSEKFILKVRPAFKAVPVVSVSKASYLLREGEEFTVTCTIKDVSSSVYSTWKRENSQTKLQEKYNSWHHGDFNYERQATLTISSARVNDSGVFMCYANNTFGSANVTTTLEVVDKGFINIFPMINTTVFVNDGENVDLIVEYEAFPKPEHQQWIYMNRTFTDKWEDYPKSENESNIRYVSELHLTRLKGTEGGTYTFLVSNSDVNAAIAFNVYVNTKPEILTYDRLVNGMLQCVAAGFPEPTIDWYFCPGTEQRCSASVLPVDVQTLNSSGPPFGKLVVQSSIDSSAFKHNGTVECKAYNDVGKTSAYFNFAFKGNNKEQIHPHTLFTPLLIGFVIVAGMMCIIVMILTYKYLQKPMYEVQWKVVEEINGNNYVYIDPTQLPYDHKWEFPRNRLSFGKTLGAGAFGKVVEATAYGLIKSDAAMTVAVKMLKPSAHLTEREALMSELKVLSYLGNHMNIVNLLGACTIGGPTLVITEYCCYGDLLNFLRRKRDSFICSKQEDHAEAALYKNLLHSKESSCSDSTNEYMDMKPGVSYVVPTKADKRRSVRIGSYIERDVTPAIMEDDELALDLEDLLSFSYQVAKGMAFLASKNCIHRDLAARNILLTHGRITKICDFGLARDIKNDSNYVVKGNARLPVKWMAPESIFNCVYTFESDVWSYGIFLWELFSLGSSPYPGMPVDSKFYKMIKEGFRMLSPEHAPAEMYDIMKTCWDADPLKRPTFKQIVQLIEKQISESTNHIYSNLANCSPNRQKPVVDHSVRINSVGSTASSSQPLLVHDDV
Protocol: These assays were conducted according to the manufacturer’s instructions. […] TK-ELISA and MSA assays were used to conduct IC50 studies for FLT3, LTK, AXL, and c-KIT; the HTRF® KinEASE™-TK assay (Sceti Medical Labo, Tokyo, Japan) was performed according to the manufacturer’s protocol to assess the IC50 value of echinoderm microtubule-associated protein-like 4-ALK (EML4-ALK; three individual experiments for each kinase).

[11] = system: Ba/F3 cells expressing FLT3-ITD; test: Ba/F3 FLT3-ITD subcutaneous xenograft; type: in vivo, mice; conditions: up to 7 days
Protocol: as §1, §2

[12] = read-out: Kinase inhibition at the specified gilteritinib concentration (%), 0.1 nM, 2 h
[13] = read-out: Kinase inhibition at the specified gilteritinib concentration (%), 1 nM, 2 h
[14] = read-out: Kinase inhibition at the specified gilteritinib concentration (%), 10 nM, 2 h

For `CCc1nc(C(N)=O)c(Nc2ccc(N3CCC(N4CCN(C)CC4)CC3)c(OC)c2)nc1NC1CCOCC1` [gilteritinib], which Body weight [1] is on record?
The Body weight was “not affected”.

What about the IC50 [2] of the same compound?
The IC50 was 2.1 nM.

What about the IC50 [3] of the same compound?
The IC50 was 1.8 nM.

And the IC50 [4]?
The IC50 was 420 nM.

What about the activity at 0.0001 µM [5, 12] of the same compound?
The activity at 0.0001 µM was 54%.

What about the activity at 0.001 µM [5, 13] of the same compound?
Its activity at 0.001 µM is 22%.

And the activity at 0.01 µM [5, 14]?
The activity at 0.01 µM was 1%.

And the activity at 0.0001 µM [6, 12]?
The activity at 0.0001 µM was 65%.

What about the activity at 0.001 µM [6, 13] of the same compound?
Its activity at 0.001 µM is 48%.

And the activity at 0.01 µM [6, 14]?
The activity at 0.01 µM was 9%.

And the activity at 0.0001 µM [7, 12]?
Its activity at 0.0001 µM is 114%.

What about the activity at 0.001 µM [7, 13] of the same compound?
The activity at 0.001 µM was 23%.

And the activity at 0.01 µM [7, 14]?
Its activity at 0.01 µM is 0%.

What about the “Growth inhibition of MV4–11 tumors” value ([8]; 1 mg/kg/day oral once daily) of the same compound?
The value was 63%.

What about the “Growth inhibition of MV4–11 tumors” value ([8]; 3 mg/kg/day oral once daily) of the same compound?
The value was 80%.

And the Tumor regression ([8]; 6 mg/kg/day oral once daily)?
The Tumor regression was 93%.

And the “Mice with complete tumor regression” value ([8]; 6 mg/kg/day)?
The value was “Four of the six mice”.

And the Tumor regression ([8]; 10 mg/kg/day oral once daily)?
Its Tumor regression is 100%.

What about the “Mice with complete tumor regression” value ([8]; 10 mg/kg/day) of the same compound?
The value was “all six mice”.

And the AUC(0-t) ([9]; plasma, single oral 1 mg/kg)?
The AUC(0-t) was 25.2 ng·h/mL.

What about the Cmax ([9]; plasma, single oral 1 mg/kg, read-out: Cmax, plasma concentration) of the same compound?
Its Cmax is 6.56 ng/mL.

What about the Tmax ([9]; plasma, single oral 1 mg/kg) of the same compound?
Its Tmax is 2 h.

And the AUC(0-t) ([9]; plasma, single oral 6 mg/kg)?
Its AUC(0-t) is 269 ng·h/mL.

And the Cmax ([9]; plasma, single oral 6 mg/kg, read-out: Cmax, plasma concentration)?
Its Cmax is 45.9 ng/mL.

What about the Tmax ([9]; plasma, single oral 6 mg/kg) of the same compound?
Its Tmax is 2 h.

And the AUC(0-t) ([9]; plasma, single oral 10 mg/kg)?
Its AUC(0-t) is 493 ng·h/mL.

And the Cmax ([9]; plasma, single oral 10 mg/kg, read-out: Cmax, plasma concentration)?
The Cmax was 83 ng/mL.

What about the Tmax ([9]; plasma, single oral 10 mg/kg) of the same compound?
The Tmax was 2 h.

What about the Cmax ([9]; tumor, single oral 1 mg/kg, read-out: Cmax, intratumor concentration) of the same compound?
The Cmax was 90.6 ng/g.

What about the Cmax ([9]; tumor, single oral 6 mg/kg, read-out: Cmax, intratumor concentration) of the same compound?
The Cmax was 772 ng/g.

What about the Cmax ([9]; tumor, single oral 10 mg/kg, read-out: Cmax, intratumor concentration) of the same compound?
Its Cmax is 1120 ng/g.

And the “Concentration in tumors compared with plasma” value ([9]; single oral 1, 6, 10 mg/kg, each time point)?
The value was “higher than that in plasma at each time point”.

And the “AUCt, intratumor concentration” value ([9]; tumor, single oral 1 mg/kg)?
The value was 1186 ng·h/g.

And the “Time of maximal intratumor concentration” value ([9]; tumor, single oral 1 mg/kg)?
The value was 4 h.

What about the “AUCt, intratumor concentration” value ([9]; tumor, single oral 6 mg/kg) of the same compound?
The value was 12880 ng·h/g.

What about the “Time of maximal intratumor concentration” value ([9]; tumor, single oral 6 mg/kg) of the same compound?
Its value is 8 h.

What about the “AUCt, intratumor concentration” value ([9]; tumor, single oral 10 mg/kg) of the same compound?
The value was 17330 ng·h/g.

And the “Time of maximal intratumor concentration” value ([9]; tumor, single oral 10 mg/kg)?
The value was 8 h.

And the IC50 [10]?
Its IC50 is 230 nM.

What about the “Antitumor effect (tumor volume)” value ([11]; 10 mg/kg once-daily oral) of the same compound?
Its value is “showed antitumor efficacy”.

And the “Antitumor effect (tumor volume)” value ([11]; 30 mg/kg once-daily oral)?
Its value is “induced tumor regression”.
